From US8535901B2, “Peptidase substrates” (bioMérieux, S.A., priority 2009, dated 2013)
One block for each compound: values may come before it.

Columns and labels:
Type in all cases: cell-based
[1] = test system: Yersinia enterocolitica NCTC 11 176; assay: Peptidase detection on Columbia medium with substrate; design: key to Grow. (growth): NG: No growth; 0.5: weak growth; 1: moderate growth; 2: good growth; settings: 40 mg substrate in 400 ml Columbia medium, 24 hours at 37° C.
Protocol: (§2) The 6 media were distributed into Petri dishes 90 mm in diameter, in a proportion of 20 ml per dish.
(§3) Seventeen strains of microorganisms stemming from collections and belonging to various species of bacteria and yeasts are inoculated in spots of approximately 10 000 colony-forming units.
(§4) The media are incubated for 24 hours at 37° C., and then the colonies formed are examined visually, with or without the addition of acid and under a UV lamp at 365 nm.

[2] = test system: Enterococcus faecalis NCTC 775; assay: as above; design: key to Grow. (growth): NG: No growth; 0.5: weak growth; 1: moderate growth; 2: good growth; settings: 40 mg substrate in 400 ml Columbia medium, 24 hours at 37° C.
Protocol: as §2, §3, §4

[3] = test system: Streptococcus pyogenes NCTC 8 306; assay: as above; design: key to Grow. (growth): NG: No growth; 0.5: weak growth; 1: moderate growth; 2: good growth; settings: 40 mg substrate in 400 ml Columbia medium, 24 hours at 37° C.
Protocol: as §2, §3, §4

[4] = test system: Staphylococcus epidermidis NCTC 11 047; assay: as above; design: key to Grow. (growth): NG: No growth; 0.5: weak growth; 1: moderate growth; 2: good growth; settings: 40 mg substrate in 400 ml Columbia medium, 24 hours at 37° C.
Protocol: as §2, §3, §4

[5] = test system: Candida glabrata NCPF 3 943; assay: as above; design: key to Grow. (growth): NG: No growth; 0.5: weak growth; 1: moderate growth; 2: good growth; settings: 40 mg substrate in 400 ml Columbia medium, 24 hours at 37° C.
Protocol: as §2, §3, §4

[6] = test system: Serratia marcescens NCTC 10 211; assay: as above; design: key to Grow. (growth): NG: No growth; 0.5: weak growth; 1: moderate growth; 2: good growth; settings: 40 mg substrate in 400 ml Columbia medium, 24 hours at 37° C.
Protocol: as §2, §3, §4

[7] = test system: Staphylococcus aureus NCTC 6 571; assay: as above; design: key to Grow. (growth): NG: No growth; 0.5: weak growth; 1: moderate growth; 2: good growth; settings: 40 mg substrate in 400 ml Columbia medium, 24 hours at 37° C.
Protocol: as §2, §3, §4

[8] = test system: Enterococcus faecium NCTC 7 171; assay: as above; design: key to Grow. (growth): NG: No growth; 0.5: weak growth; 1: moderate growth; 2: good growth; settings: 40 mg substrate in 400 ml Columbia medium, 24 hours at 37° C.
Protocol: as §2, §3, §4

[9] = test system: Enterobacter cloacae NCTC 11 936; assay: as above; design: key to Grow. (growth): NG: No growth; 0.5: weak growth; 1: moderate growth; 2: good growth; settings: 40 mg substrate in 400 ml Columbia medium, 24 hours at 37° C.
Protocol: as §2, §3, §4

[10] = test system: Pseudomonas aeruginosa NCTC 10 662; assay: as above; design: key to Grow. (growth): NG: No growth; 0.5: weak growth; 1: moderate growth; 2: good growth; settings: 40 mg substrate in 400 ml Columbia medium, 24 hours at 37° C.
Protocol: as §2, §3, §4

[11] = test system: Providencia rettgeri NCTC 7 475; assay: as above; design: key to Grow. (growth): NG: No growth; 0.5: weak growth; 1: moderate growth; 2: good growth; settings: 40 mg substrate in 400 ml Columbia medium, 24 hours at 37° C.
Protocol: as §2, §3, §4

[12] = test system: Escherichia coli NCTC 10 418; assay: as above; design: key to Grow. (growth): NG: No growth; 0.5: weak growth; 1: moderate growth; 2: good growth; settings: 40 mg substrate in 400 ml Columbia medium, 24 hours at 37° C.
Protocol: as §2, §3, §4

[13] = test system: Listeria monocytogenes NCTC 11 994; assay: as above; design: key to Grow. (growth): NG: No growth; 0.5: weak growth; 1: moderate growth; 2: good growth; settings: 40 mg substrate in 400 ml Columbia medium, 24 hours at 37° C.
Protocol: as §2, §3, §4

[14] = test system: Staphylococcus aureus NCTC 11 939; assay: as above; design: key to Grow. (growth): NG: No growth; 0.5: weak growth; 1: moderate growth; 2: good growth; settings: 40 mg substrate in 400 ml Columbia medium, 24 hours at 37° C.
Protocol: as §2, §3, §4

[15] = test system: Salmonella typhimurium NCTC 74; assay: as above; design: key to Grow. (growth): NG: No growth; 0.5: weak growth; 1: moderate growth; 2: good growth; settings: 40 mg substrate in 400 ml Columbia medium, 24 hours at 37° C.
Protocol: as §2, §3, §4

[16] = test system: Bacillus subtilis NCTC 9 372; assay: as above; design: key to Grow. (growth): NG: No growth; 0.5: weak growth; 1: moderate growth; 2: good growth; settings: 40 mg substrate in 400 ml Columbia medium, 24 hours at 37° C.
Protocol: as §2, §3, §4

[17] = test system: Candida albicans ATCC 90 028; assay: as above; design: key to Grow. (growth): NG: No growth; 0.5: weak growth; 1: moderate growth; 2: good growth; settings: 40 mg substrate in 400 ml Columbia medium, 24 hours at 37° C.
Protocol: as §2, §3, §4

[18] = test system: Klebsiella pneumoniae NCTC 10 896; assay: Colony color on lactose/sucrose agar medium with pH indicator; settings: indicator 0.05 g/l with lactose, sucrose and 5-bromo-4-chloro-3-indoxyl-β-D-glucopyranoside 0.05 g/l, 24 hours at 37° C., visual
Protocol: (§1) Seven strains of microorganisms originating from the NCTC collection and belonging to various species of bacteria are inoculated onto these media by quadrant streaking of 10 μl of a suspension at 0.5 McFarland diluted to a 1/20.

[19] = test system: Shigella boydii NCTC 9327; assay: as above; settings: indicator 0.05 g/l with lactose, sucrose and 5-bromo-4-chloro-3-indoxyl-β-D-glucopyranoside 0.05 g/l, 24 hours at 37° C., visual
Protocol: as §1

[20] = test system: Morganella morganii NCTC 235; assay: as above; settings: indicator 0.05 g/l with lactose, sucrose and 5-bromo-4-chloro-3-indoxyl-β-D-glucopyranoside 0.05 g/l, 24 hours at 37° C., visual
Protocol: as §1

[21] = test system: Escherichia coli NCTC 12 076; assay: as above; settings: indicator 0.05 g/l with lactose, sucrose and 5-bromo-4-chloro-3-indoxyl-β-D-glucopyranoside 0.05 g/l, 24 hours at 37° C., visual
Protocol: as §1

[22] = test system: Enterobacter cloacae NCTC 11 936; assay: as above; settings: indicator 0.05 g/l with lactose, sucrose and 5-bromo-4-chloro-3-indoxyl-β-D-glucopyranoside 0.05 g/l, 24 hours at 37° C., visual
Protocol: as §1

[23] = test system: Enterobacter aerogenes NCTC 10 102; assay: as above; settings: indicator 0.05 g/l with lactose, sucrose and 5-bromo-4-chloro-3-indoxyl-β-D-glucopyranoside 0.05 g/l, 24 hours at 37° C., visual
Protocol: as §1

[24] = test system: Citrobacter freundii NCTC 9750; assay: as above; settings: indicator 0.05 g/l with lactose, sucrose and 5-bromo-4-chloro-3-indoxyl-β-D-glucopyranoside 0.05 g/l, 24 hours at 37° C., visual
Protocol: as §1

Grow. (growth) [2]: 2
Col. (colour of the colonies) ([2]; visual): Pale green
Grow. (growth) [3]: 1
Col. (colour of the colonies) ([3]; visual): Pale green
Grow. (growth) [6]: 2
Col. (colour of the colonies) ([6]; visual): Orange
Grow. (growth) [8]: 2
Col. (colour of the colonies) ([8]; visual): Pale green
Grow. (growth) [9]: 2
Col. (colour of the colonies) ([9]; visual): Green
Grow. (growth) [10]: 2
Col. (colour of the colonies) ([10]; visual): Orange
Grow. (growth) [13]: 2
Col. (colour of the colonies) ([13]; visual): Pale green
Grow. (growth) [15]: 1
Col. (colour of the colonies) ([15]; visual): Pale green
Grow. (growth) [16]: 2
Col. (colour of the colonies) ([16]; visual): Pale green
Structure (SMILES): C[n+]1ccc(C=Cc2ccc(NC(=O)CCN)cc2)cc1.[Cl-] [β-Ala-ASPM^+, β-Alanyl-4-(4′-amidostyryl)-N-methyl-pyridinium chloride]
Grow. (growth) [1]: 2
Col. (colour of the colonies) ([1]; visual): Pale green
Grow. (growth) [4]: 2
Col. (colour of the colonies) ([4]; visual): Green
Grow. (growth) [5]: 1
Col. (colour of the colonies) ([5]; visual): Pale green
Grow. (growth) [7]: 2
Col. (colour of the colonies) ([7]; visual): Green
Grow. (growth) [11]: 2
Col. (colour of the colonies) ([11]; visual): Green
Grow. (growth) [12]: 2
Col. (colour of the colonies) ([12]; visual): Green
Grow. (growth) [14]: 2
Col. (colour of the colonies) ([14]; visual): Green
Grow. (growth) [17]: 2
Col. (colour of the colonies) ([17]; visual): Pale green

Structure (SMILES): Nc1ccc(C=Cc2ccncc2)cc1 [4-4′-Aminostyrylpyridine, 4-(4′-Aminostyryl)pyridine]
Colony color [18]: Green
Colony color [19]: Colorless
Colony color [20]: Colorless
Colony color [21]: Yellow
Colony color [22]: Green
Colony color [23]: Green
Colony color [24]: Yellow
